# From patent US7358076B2, “Sublancin lantibiotic produced by Bacillus subtilis 168” (The University of Maryland, priority 1997, dated 2008)
# Experiments:
# B. cereus T spores [1] = experiment: halo assay on agar plates sprayed with spores, extended incubation; assay type: cell-based, Bacillus cereus; conditions: lawns from sprayed B. cereus T spores, incubation for several days, data not shown
# Method: Two methods were employed to assay the activity of sublancin 168; a halo assay on plates, and a liquid assay in culture tubes. Both methods used Bacillus cereus T spores as the test organism. 250 mg of spores, prepared as previously described (12), were suspended in 30 mL of distilled water with a glass homogenizer, heat-shocked at 65° C. for 2 hr, centrifuged, and resuspended in 50% ethanol. This suspension was sprayed onto the surface of Medium A-containing agar plates using a Sigma spray unit (St. Louis Mo.). Prior to spraying, 10-20 μL volumes of serial dilutions of purified sublancin were spotted onto the plate. […] growth of the spores, and the diameters of the halos caused by sublancin inhibition were measured, and the minimum amount of peptide that was required to give an observable halo was noted. For the liquid assay, heat-shocked spores were suspended in sterile water to a final concentration of 2 mg/mL, and then added to culture tubes containing 1% BACTO®-tryptone, 0.1 M TRIS®-Pi, pH 6.8. Prior to adding the spores, serial dilutions of sublancin were added to the tubes. The final concentration of spores was 0.1 mg/mL. The tubes were incubated at 37° C. for 3 hr, using sufficient shaking to keep the spores well suspended. […]
# The ability of sublancin to inhibit bacterial spore outgrowth was also determined. […]
# B. cereus T spores [2] = conditions: from reference (30); cited from earlier work
# B. cereus T spores [3] = conditions: cited from earlier work
structure (smiles),measurement,setting,value
C=C1NC(=O)CC[C@@H](C(=O)O)NC(=O)[C@H](NC(=O)[C@H](CCCCN)NC(=O)[C@@H](N)Cc2c[nH]c3ccccc23)CSC[C@@H](C(=O)N[C@@H]2C(=O)N3CCC[C@H]3C(=O)NCC(=O)N[C@H](C(=O)N[C@H](C(=O)N[C@@H]3C(=O)NCC(=O)N[C@@H](C)C(=O)N[C@@H](CC(C)C)C(=O)N[C@@H](CCC(N)=O)C(=O)N/C(=C/C)C(=O)N[C@H](C(=O)N[C@@H](Cc4ccccc4)C(=O)N[C@@H](CC(C)C)C(=O)N[C@@H](CCC(N)=O)C(=O)N[C@@H]4C(=O)N[C@@H](CC(C)C)C(=O)N[C@H]5C(=O)N[C@@H](CSC4C)C(=O)NC(=O)[C@H](CC(N)=O)N[C@H](C(=O)N[C@@H](CCCCN)C(=O)N[C@H](C(=O)NC(=C)C(=O)N[C@@H](CCCCN)C(=O)O)[C@@H](C)CC)CSC5C)CSC3C)C(C)C)CSC2C)N[C@@H](CC(C)C)C(=O)NC1=O (stereo partly shown) [subtilin],appearance of halos after extended incubation of the plates,B. cereus T spores [1],remained completely clear
same,"binding and inhibition of spores, reversibility",B. cereus T spores [2],irreversibly
same,concentration required to inhibit outgrowth of these same spores,"B. cereus T spores [3]; B. cereus T spores, from references (27,29)",80 nM
same,"corresponding ratio, spore outgrowth inhibition versus inhibition of exponentially growing cells","B. cereus T spores [3]; comparison value for subtilin, same methods as reference (27)",30 fold
